Columns and labels:
[1] = human, in vivo
Procedure: (§1) Safety was appraised throughout the study by the assessment of clinical and laboratory adverse events (AEs; graded by Common Terminology Criteria for Adverse Events [CTCAE], version 4.03), physical examination, and evaluation of vital signs and laboratory data (clinical chemistry and hematology).
(§2) Patients were evaluated according to the treatment received.

[2] = safety and tolerability, adverse events (CTCAE version 4.03) in patients
Procedure: as §1, §2

Wee1 = test system: Wee1; design: method as in PMID 25964244, PMID 19887545; conditions: read-out: half-maximal inhibitory concentration (IC50); cited from earlier work
clinical = conditions: human, in vivo, 225 mg
Procedure: PK parameters were derived using non-compartmental methods with Phoenix® WinNonlin® version 6.4 (Certara, LP, Princeton, NJ, USA). All descriptive and inferential statistical computations were performed using SAS® version 9.1 (SAS Institute, Cary, NC, USA).

CYP3A = conditions: read-out: IC50, reversible inhibition of CYP3A; ref AstraZeneca, data on file, 2020; 16; cited from earlier work
[3] = Adavosertib n = 30, Adavosertib + cocktail n = 26
[4] = after receiving adavosertib, all 30 patients
[5] = probe cocktail plus adavosertib 26 patients, adavosertib alone on days 1 and 2, 30
[6] = probe cocktail plus adavosertib n = 26, adavosertib alone n = 30

## C=CCn1c(=O)c2cnc(Nc3ccc(N4CCN(C)CC4)cc3)nc2n1-c1cccc(C(C)(C)O)n1 [adavosertib]
[1]
  AEs with an outcome of death: No AEs with an outcome of death were observed
[2]; [3]
  Acute kidney injury (causally related), any grade: 1 (3.3) Number of patients (%)
  Acute kidney injury (causally related), grade ≥3: 1 ( 3. 3) Number of patients (%)
  Anemia (causally related), any grade: 0 Number of patients (%)
  Anemia (causally related), grade ≥3: 0 Number of patients (%)
  Any AE (causally related), any grade: 11 (36.7) Number of patients (%)
  Any AE (causally related), grade ≥3: 4 (13.3) Number of patients (%)
  Blood and lymphatic system disorders (causally related), any grade: 2 ( 6. 7) Number of patients (%)
  Blood and lymphatic system disorders (causally related), grade ≥3: 1 (3.3) Number of patients (%)
  Blood creatinine increased (causally related), any grade: 0 Number of patients (%)
  Blood creatinine increased (causally related), grade ≥3: 0 Number of patients (%)
  Decreased appetite (causally related), any grade: 0 Number of patients (%)
  Decreased appetite (causally related), grade ≥3: 0 Number of patients (%)
  Dehydration (causally related), any grade: 1 (3.3) Number of patients (%)
  Dehydration (causally related), grade ≥3: 1 (3.3) Number of patients (%)
  Diarrhea (causally related), any grade: 10 (33.3) Number of patients (%)
  Diarrhea (causally related), grade ≥3: 3 (10.0) Number of patients (%)
  Dizziness (causally related), any grade: 0 Number of patients (%)
  Dizziness (causally related), grade ≥3: 0 Number of patients (%)
  Fatigue (causally related), any grade: 0 Number of patients (%)
  Fatigue (causally related), grade ≥3: 0 Number of patients (%)
  Flushing (causally related), any grade: 0 Number of patients (%)
  Flushing (causally related), grade ≥3: 0 Number of patients (%)
  Gastrointestinal disorders (causally related), any grade: 11 (36.7) Number of patients (%)
  Gastrointestinal disorders (causally related), grade ≥3: 3 (10.0) Number of patients (%)
  General disorders and administration site conditions (causally related), any grade: 0 Number of patients (%)
  General disorders and administration site conditions (causally related), grade ≥3: 0 Number of patients (%)
  Hypokalemia (causally related), any grade: 1 (3.3) Number of patients (%)
  Hypokalemia (causally related), grade ≥3: 1 (3.3) Number of patients (%)
  Investigations (causally related), any grade: 2 (6.7) Number of patients (%)
  Investigations (causally related), grade ≥3: 0 Number of patients (%)
  Metabolism and nutrition disorders (causally related), any grade: 2 (6.7) Number of patients (%)
  Metabolism and nutrition disorders (causally related), grade ≥3: 2 ( 6. 7) Number of patients (%)
  Muscle spasms (causally related), any grade: 0 Number of patients (%)
  Muscle spasms (causally related), grade ≥3: 0 Number of patients (%)
  Musculoskeletal and connective tissue disorders (causally related), any grade: 0 Number of patients (%)
  Musculoskeletal and connective tissue disorders (causally related), grade ≥3: 0 Number of patients (%)
  Nasal ulcer (causally related), any grade: 0 Number of patients (%)
  Nasal ulcer (causally related), grade ≥3: 0 Number of patients (%)
  Nausea (causally related), any grade: 3 (10.0) Number of patients (%)
  Nausea (causally related), grade ≥3: 1 (3.3) Number of patients (%)
  Nervous system disorders (causally related), any grade: 0 Number of patients (%)
  Nervous system disorders (causally related), grade ≥3: 0 Number of patients (%)
  Neutropenia (causally related), any grade: 1 (3.3) Number of patients (%)
  Neutropenia (causally related), grade ≥3: 1 (3.3) Number of patients (%)
  Pancreatitis (causally related), any grade: 1 (3.3) Number of patients (%)
  Pancreatitis (causally related), grade ≥3: 1 (3.3) Number of patients (%)
  Renal and urinary disorders (causally related), any grade: 1 (3.3) Number of patients (%)
  Renal and urinary disorders (causally related), grade ≥3: 1 (3.3) Number of patients (%)
  Respiratory, thoracic and mediastinal disorders (causally related), any grade: 0 Number of patients (%)
  Respiratory, thoracic and mediastinal disorders (causally related), grade ≥3: 0 Number of patients (%)
  Stomatitis (causally related), any grade: 0 Number of patients (%)
  Stomatitis (causally related), grade ≥3: 0 Number of patients (%)
  Thrombocytopenia (causally related), any grade: 1 (3.3) Number of patients (%)
  Thrombocytopenia (causally related), grade ≥3: 0 Number of patients (%)
  Vascular disorders (causally related), any grade: 0 Number of patients (%)
  Vascular disorders (causally related), grade ≥3: 0 Number of patients (%)
  Vomiting (causally related), any grade: 6 (20.0) Number of patients (%)
  Vomiting (causally related), grade ≥3: 1 (3.3) Number of patients (%)
  Weight decreased (causally related), any grade: 2 (6.7) Number of patients (%)
  Weight decreased (causally related), grade ≥3: 0 Number of patients (%)
[2]; Total (n = 30)
  Acute kidney injury (causally related), any grade: 1 (3.3) Number of patients (%)
  Acute kidney injury (causally related), grade ≥3: 1 (3.3) Number of patients (%)
  Anemia (causally related), any grade: 1 (3.3) Number of patients (%)
  Anemia (causally related), grade ≥3: 1 (3.3) Number of patients (%)
  Any AE (causally related), any grade: 19 (63.3) Number of patients (%)
  Any AE (causally related), grade ≥3: 6 (20.0) Number of patients (%)
  Blood and lymphatic system disorders (causally related), any grade: 4 (13.3) Number of patients (%)
  Blood and lymphatic system disorders (causally related), grade ≥3: 3 (10.0) Number of patients (%)
  Blood creatinine increased (causally related), any grade: 1 (3.3) Number of patients (%)
  Blood creatinine increased (causally related), grade ≥3: 0 Number of patients (%)
  Decreased appetite (causally related), any grade: 1 (3.3) Number of patients (%)
  Decreased appetite (causally related), grade ≥3: 0 Number of patients (%)
  Dehydration (causally related), any grade: 2 (6.7) Number of patients (%)
  Dehydration (causally related), grade ≥3: 1 (3.3) Number of patients (%)
  Diarrhea (causally related), any grade: 14 (46.7) Number of patients (%)
  Diarrhea (causally related), grade ≥3: 3 (10.0) Number of patients (%)
  Dizziness (causally related), any grade: 2 (6.7) Number of patients (%)
  Dizziness (causally related), grade ≥3: 0 Number of patients (%)
  Fatigue (causally related), any grade: 1 (3.3) Number of patients (%)
  Fatigue (causally related), grade ≥3: 0 Number of patients (%)
  Flushing (causally related), any grade: 1 (3.3) Number of patients (%)
  Flushing (causally related), grade ≥3: 0 Number of patients (%)
  Gastrointestinal disorders (causally related), any grade: 17 (56.7) Number of patients (%)
  Gastrointestinal disorders (causally related), grade ≥3: 3 (10.0) Number of patients (%)
  General disorders and administration site conditions (causally related), any grade: 1 (3.3) Number of patients (%)
  General disorders and administration site conditions (causally related), grade ≥3: 0 Number of patients (%)
  Hypokalemia (causally related), any grade: 1 (3.3) Number of patients (%)
  Hypokalemia (causally related), grade ≥3: 1 (3.3) Number of patients (%)
  Investigations (causally related), any grade: 4 (13.3) Number of patients (%)
  Investigations (causally related), grade ≥3: 0 Number of patients (%)
  Metabolism and nutrition disorders (causally related), any grade: 3 (10.0) Number of patients (%)
  Metabolism and nutrition disorders (causally related), grade ≥3: 2 (6.7) Number of patients (%)
  Muscle spasms (causally related), any grade: 1 (3.3) Number of patients (%)
  Muscle spasms (causally related), grade ≥3: 0 Number of patients (%)
  Musculoskeletal and connective tissue disorders (causally related), any grade: 1 (3.3) Number of patients (%)
  Musculoskeletal and connective tissue disorders (causally related), grade ≥3: 0 Number of patients (%)
  Nasal ulcer (causally related), any grade: 1 (3.3) Number of patients (%)
  Nasal ulcer (causally related), grade ≥3: 0 Number of patients (%)
  Nausea (causally related), any grade: 6 (20.0) Number of patients (%)
  Nausea (causally related), grade ≥3: 1 (3.3) Number of patients (%)
  Nervous system disorders (causally related), any grade: 2 (6.7) Number of patients (%)
  Nervous system disorders (causally related), grade ≥3: 0 Number of patients (%)
  Neutropenia (causally related), any grade: 2 (6.7) Number of patients (%)
  Neutropenia (causally related), grade ≥3: 2 (6.7) Number of patients (%)
  Pancreatitis (causally related), any grade: 1 (3.3) Number of patients (%)
  Pancreatitis (causally related), grade ≥3: 1 (3.3) Number of patients (%)
  Renal and urinary disorders (causally related), any grade: 1 (3.3) Number of patients (%)
  Renal and urinary disorders (causally related), grade ≥3: 1 (3.3) Number of patients (%)
  Respiratory, thoracic and mediastinal disorders (causally related), any grade: 1 (3.3) Number of patients (%)
  Respiratory, thoracic and mediastinal disorders (causally related), grade ≥3: 0 Number of patients (%)
  Stomatitis (causally related), any grade: 1 (3.3) Number of patients (%)
  Stomatitis (causally related), grade ≥3: 0 Number of patients (%)
  Thrombocytopenia (causally related), any grade: 2 (6.7) Number of patients (%)
  Thrombocytopenia (causally related), grade ≥3: 0 Number of patients (%)
  Vascular disorders (causally related), any grade: 1 (3.3) Number of patients (%)
  Vascular disorders (causally related), grade ≥3: 0 Number of patients (%)
  Vomiting (causally related), any grade: 7 (23.3) Number of patients (%)
  Vomiting (causally related), grade ≥3: 1 (3.3) Number of patients (%)
  Weight decreased (causally related), any grade: 3 (10.0) Number of patients (%)
  Weight decreased (causally related), grade ≥3: 0 Number of patients (%)
[2]; adavosertib alone n = 30
  patients with treatment-related vomiting: 20.0%
[2]; adavosertib alone on days 1 and 2, two SAEs: acute kidney injury and pancreatitis, led to discontinuation
  patients reporting serious AEs (SAEs) considered related to adavosertib: One
[2]; [4]
  patients with treatment-related adverse events: 63%
  patients with treatment-related adverse events grade ≥ 3: 20%
[2]; any cause
  patients with CTCAE grade ≥ 3 acute kidney injury: 3.3%
  patients with CTCAE grade ≥ 3 dehydration: 3.3%
  patients with CTCAE grade ≥ 3 diarrhea: 10.0%
  patients with CTCAE grade ≥ 3 hypokalemia: 3.3%
  patients with CTCAE grade ≥ 3 hypoxia: 3.3%
  patients with CTCAE grade ≥ 3 nausea: 3.3%
  patients with CTCAE grade ≥ 3 necrotizing soft-tissue infection: 3.3%
  patients with CTCAE grade ≥ 3 neutropenia: 3.3%
  patients with CTCAE grade ≥ 3 pancreatitis: 3.3%
  patients with CTCAE grade ≥ 3 small-intestinal obstruction: 3.3%
  patients with CTCAE grade ≥ 3 thrombocytopenia: 3.3%
  patients with CTCAE grade ≥ 3 vomiting: 3.3%
[2]; cocktail alone 33 patients, probe cocktail plus adavosertib 26, adavosertib alone on days 1 and 2, 30
  patients who experienced AEs: 53.3%
[2]; grade 3 diarrhea (related to adavosertib), grade 3 small-bowel obstruction (not related)
  patients who discontinued treatment because of AEs: Two
[2]; [5]
  patients with adverse events of CTCAE grade ≥ 3: 16.7%
  patients with treatment-related AEs: 36.7%
[2]; [6]
  patients with treatment-related diarrhea: 33.3%
  patients with treatment-related nausea: 10.0%
Wee1
  IC50: 0.0052 µM
clinical
  CLss/F, arithmetic mean (SD): 38.0 (12.11) L/h
  CLss/F, median (minimum, maximum): 36.9 (24.3, 63.5) L/h
  Tmax: 3 h
  intra-patient variability for AUC0–12 and Cmax: < 10%
clinical; AUC0–12, arithmetic mean (SD)
  AUC(0-t): 12.7 µM·h
clinical; AUC0–12, geometric mean
  AUC(0-t): 12.2 µM·h
clinical; AUC0–12, median (minimum, maximum)
  AUC(0-t): 12 µM·h
clinical; arithmetic mean (SD)
  Cmax: 1490 nM
clinical; geometric mean
  Cmax: 1440 nM
clinical; median (minimum, maximum)
  Cmax: 1420 nM
CYP3A
  IC50: 14 µM

Reference: publication PMC10363032 (Cancer Chemotherapy and Pharmacology, 2023)
